Reference: US11813333B2, “Use of high molecular weight polyethylene glycol compositions to restore the efficacy of pegylated therapeutic compositions” (THE UNIVERSITY OF NORTH CAROLINA AT CHAPEL HILL, priority 2017, dated 2023)

Tests used:
[1] = test system: anti-PEG antibodies (APA); conditions: patients with chronic refractory gout; cited from earlier work
[2] = test system: anti-PEG antibodies (APA); conditions: mouse, in vivo
Method: Adult BALB/c mice (18-22 weeks, female, Charles River) were passively immunized with APA by the intravenous administration of mouse anti-PEG IgG1 (Silver Lake Research, CH2076, lot K0868) 24 hours prior to the intravenous administration of PLD (3 mg/kg, Doxil®, Janssen Products, LP). […] Other groups received PBS 0.5 hours prior to the administration of PLD as a control. At time points of 0.083, 3, 6, 24, 48, and 96 hours following PLD administration, mice were anesthetized using ketamine (100 mg/kg, i.p.) and medetomidine hydrochloride (1 mg/kg, i.p.), then sacrificed via cardiac puncture (into sodium heparin vacutainers) and cervical dislocation. The blood, liver, spleen, and lungs were collected for doxorubicin quantification.
Briefly, blood samples were collected in sodium heparin tubes at 0.083, 3, 6, 24, 48 and 96 hours after the administration of PLD. Blood was centrifuged at 1,500 g for 5 minutes to obtain plasma. Encapsulated and released doxorubicin in plasma were separated using solid phase separation. Tissues of interest were flash frozen in liquid nitrogen and stored at −80° C. until processing. Upon processing, tissues were thawed, weighed, and diluted in a 1:3 ratio with phosphate buffered saline prior to homogenizing with a Precellys 24 bead mill homogenizer (Omni International Inc, Kennesaw, GA). Samples were further processed by addition of 800 μL extraction solution (acetonitrile with 100 ng/mL daunorubicin internal standard) to 200 μL of plasma or tissue homogenate. The samples were vortexed for 10 minutes and centrifuged at 10,000 g for 10 minutes at 4° C. […] The samples were then vortexed, transferred to autosampler vials, and analyzed by high-performance liquid chromatography with fluorescence detection (HPLC-FL) set to excitation wavelength 490 nm/emission wavelength 590 nm. […] Samples that returned a concentration above the quantitative limit were diluted to fall within the quantitative range and reinjected.

Row | Substance | fraction of patients that developed APA leading to rapid clearance of the enzyme from the blood [1] | time by which the vast majority of the PLD is found in the liver (delayed hepatic accumulation) [2]
1 | pegloticase | roughly one-third | –
2 | polyethylene glycol [PEG 10 kDa] | – | 3 h
3 | polyethylene glycol [PEG 20 kDa] | – | 24 h
4 | polyethylene glycol [PEG 40 kDa] | – | 96 h
